Measurements from paper PMC5874678, “Bryonolic Acid Blocks Cancer Cell Clonogenicity and Invasiveness through the Inhibition of Fatty Acid: Cholesteryl Ester Formation” (Biomedicines, 2018).

Columns and labels:
ERβ = ERβ (Homo sapiens, UniProt Q92731); assay: Oestrogen receptor competition binding assay, ERβ; details: n.m. = no measurable inhibition of binding
Method: (§1) Competition binding to ERα and ERβ was measured exactly as described previously.

[1] = biological target: T1, ACAT in NIH-3T3-CCK2R-E151A cells (3T3-EA) (Mus musculus, UniProt Q61263); assay: ACAT activity in intact 3T3-EA cells; format: cell-based; details: 24 h, [14C]cholesterol; for IC50: read-out: IC50, inhibition of ACAT activity in intact cells
T1 construct: endogenous in cells; host or cells: NIH-3T3-CCK2R-E151A (3T3-EA)
T1 sequence (Q61263 1-540): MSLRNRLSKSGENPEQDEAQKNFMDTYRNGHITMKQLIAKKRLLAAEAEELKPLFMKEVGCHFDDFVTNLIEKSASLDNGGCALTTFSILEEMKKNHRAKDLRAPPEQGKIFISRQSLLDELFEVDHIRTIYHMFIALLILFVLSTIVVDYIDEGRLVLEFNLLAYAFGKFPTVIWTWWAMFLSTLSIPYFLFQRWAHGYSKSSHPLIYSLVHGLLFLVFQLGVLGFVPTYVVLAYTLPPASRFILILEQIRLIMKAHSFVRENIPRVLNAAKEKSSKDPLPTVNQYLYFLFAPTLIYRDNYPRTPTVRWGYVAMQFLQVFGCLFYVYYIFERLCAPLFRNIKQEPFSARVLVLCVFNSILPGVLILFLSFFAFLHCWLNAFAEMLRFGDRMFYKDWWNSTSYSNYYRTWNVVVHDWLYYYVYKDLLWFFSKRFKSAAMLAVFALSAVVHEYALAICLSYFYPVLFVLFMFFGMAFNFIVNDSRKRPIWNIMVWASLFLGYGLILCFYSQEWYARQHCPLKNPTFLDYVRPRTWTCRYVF
Method: (§2) MCF-7, MB-231, U-87 and 3T3-EA cells were plated on six-well plates (40,000 cells/well). ACAT activity in intact cells was measured as described previously. Cells were preincubated for 15 min. with solvent vehicle or increasing concentrations of BrA ranging from 1 to 200 μM in complete medium. [^14C]Cholesterol (0.2 μCi/well) was added and the cells were incubated for 24 h. At the end of the incubation, intracellular and secreted lipids in the supernatant were extracted and then separated by TLC as described previously. Free and esterified cholesterol were identified using purified ^14C commercial standards and the radioactivity of each individual lipid was quantified using a phosphor screen (Storm; GE Healthcare, Chicago, IL, USA). ACAT activity is expressed as the percentage of the ACAT activity measured in the absence of inhibitors (cells treated with solvent vehicle).
(§3) Cells were plated on 6-well plates. […]. [^14C]cholesterol (0.2 μCi/well) was added and cells were incubated for 24 h. At the end of the incubation, intracellular lipids were extracted as described in [30] and then separated by TLC as described previously. Free and esterified cholesterol were identified using purified [^14C] standards and the radioactivity associated with each individual lipid was quantified using a Phosphoscreen (Storm; Molecular Dynamics). ACAT activity is expressed as the percentage of the ACAT activity measured in the absence of inhibitors (cells treated with solvent vehicle).

[2] = biological target: T2, cholesterol-5,6-epoxide hydrolase (ChEH) (Rattus norvegicus, UniProt Q9JJ46+Q9Z2Z8); assay: Cholesterol epoxide hydrolase (ChEH) inhibition assay; format: biochemical; details: 150 μg rat liver microsomal proteins, 10 and 20 μM [14C]α-CE, compounds 0.01 to 1000 μM
T2 construct: from tissue; host or cells: rat liver microsomes
T2 sequence (Q9JJ46 2-230 limits assumed): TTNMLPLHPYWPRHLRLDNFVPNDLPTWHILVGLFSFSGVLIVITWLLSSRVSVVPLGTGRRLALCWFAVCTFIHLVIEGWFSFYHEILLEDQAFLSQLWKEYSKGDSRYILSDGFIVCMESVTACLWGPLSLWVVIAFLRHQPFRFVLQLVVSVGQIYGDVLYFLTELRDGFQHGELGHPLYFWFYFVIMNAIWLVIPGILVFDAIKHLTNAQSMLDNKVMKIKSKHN
T2 sequence (Q9Z2Z8 1-471): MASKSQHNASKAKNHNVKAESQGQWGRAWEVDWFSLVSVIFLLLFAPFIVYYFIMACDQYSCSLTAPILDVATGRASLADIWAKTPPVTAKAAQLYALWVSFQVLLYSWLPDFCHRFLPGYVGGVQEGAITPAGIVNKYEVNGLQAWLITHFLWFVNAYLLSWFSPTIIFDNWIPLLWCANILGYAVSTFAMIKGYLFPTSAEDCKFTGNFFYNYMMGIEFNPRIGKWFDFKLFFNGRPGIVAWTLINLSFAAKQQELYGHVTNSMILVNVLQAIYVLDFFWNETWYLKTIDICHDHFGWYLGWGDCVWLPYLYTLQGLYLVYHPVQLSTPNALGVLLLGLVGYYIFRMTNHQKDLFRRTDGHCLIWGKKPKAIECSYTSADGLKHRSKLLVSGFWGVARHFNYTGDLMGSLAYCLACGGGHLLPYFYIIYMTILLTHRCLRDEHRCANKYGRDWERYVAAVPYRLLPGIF
Method: Inhibition of ChEH activity was measured as described previously on a whole-cell assay using MCF-7 cells [33]. […] Cells were treated for 24 h with 0.6 μM [^14C]α-CE.
The mixtures were incubated over a period of 0 to 30 min. The tubes were placed in ice cold distilled water to stop the reaction and the addition of 1.5 mL chloroform/methanol (2:1) and reaction buffer (500 mL) followed. After vortexing, the lower phase was aspirated and the residual aqueous phase was extracted with chloroform (1.5 mL). The organic extracts were combined and dried under a gentle stream of nitrogen, followed by suspension in ethanol (60 µL).
Samples were applied to TLC plates that had been heated previously for 1 h at 100 °C and were developed using ethyl acetate. The regions corresponding to authentic CE and cholestane-3β,5α,6β-triol standards were visualized by iodine vapour. Radioactive metabolites were visualized using a Storm apparatus (GE Healthcare) and quantified by densitometry with the software ImageQuant version 5.2 (GE Healthcare).

ACAT in U-87 cells = biological target: T3, ACAT in U-87 cells (Homo sapiens, UniProt P35610); assay: ACAT activity in intact U-87 cells; format: cell-based; details: U-87, 24 h, [14C]cholesterol; for IC50: read-out: IC50, inhibition of ACAT activity in intact cells
T3 construct: endogenous in cells; host or cells: MCF-7, MDA-MB-231, U-87
T3 sequence (P35610 1-550): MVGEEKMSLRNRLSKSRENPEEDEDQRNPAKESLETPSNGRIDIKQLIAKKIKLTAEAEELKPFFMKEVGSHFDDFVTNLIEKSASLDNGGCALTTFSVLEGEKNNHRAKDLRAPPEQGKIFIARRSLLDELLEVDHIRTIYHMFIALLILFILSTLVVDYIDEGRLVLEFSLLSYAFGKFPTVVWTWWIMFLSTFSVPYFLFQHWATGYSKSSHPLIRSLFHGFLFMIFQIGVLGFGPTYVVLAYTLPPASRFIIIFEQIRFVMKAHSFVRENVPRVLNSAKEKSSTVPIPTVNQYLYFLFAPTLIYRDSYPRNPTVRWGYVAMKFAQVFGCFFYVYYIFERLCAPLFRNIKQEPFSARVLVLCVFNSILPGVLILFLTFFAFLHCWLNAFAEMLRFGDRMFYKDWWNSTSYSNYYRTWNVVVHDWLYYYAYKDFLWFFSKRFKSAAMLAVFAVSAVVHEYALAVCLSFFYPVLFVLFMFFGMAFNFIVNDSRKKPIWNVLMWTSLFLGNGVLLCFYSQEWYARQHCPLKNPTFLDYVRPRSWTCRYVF
Method: as §2, §3

ERα = biological target: T4, ERα (Homo sapiens, UniProt P03372); assay: Oestrogen receptor competition binding assay, ERα; details: n.m. = no measurable inhibition of binding
T4 sequence (P03372 1-595): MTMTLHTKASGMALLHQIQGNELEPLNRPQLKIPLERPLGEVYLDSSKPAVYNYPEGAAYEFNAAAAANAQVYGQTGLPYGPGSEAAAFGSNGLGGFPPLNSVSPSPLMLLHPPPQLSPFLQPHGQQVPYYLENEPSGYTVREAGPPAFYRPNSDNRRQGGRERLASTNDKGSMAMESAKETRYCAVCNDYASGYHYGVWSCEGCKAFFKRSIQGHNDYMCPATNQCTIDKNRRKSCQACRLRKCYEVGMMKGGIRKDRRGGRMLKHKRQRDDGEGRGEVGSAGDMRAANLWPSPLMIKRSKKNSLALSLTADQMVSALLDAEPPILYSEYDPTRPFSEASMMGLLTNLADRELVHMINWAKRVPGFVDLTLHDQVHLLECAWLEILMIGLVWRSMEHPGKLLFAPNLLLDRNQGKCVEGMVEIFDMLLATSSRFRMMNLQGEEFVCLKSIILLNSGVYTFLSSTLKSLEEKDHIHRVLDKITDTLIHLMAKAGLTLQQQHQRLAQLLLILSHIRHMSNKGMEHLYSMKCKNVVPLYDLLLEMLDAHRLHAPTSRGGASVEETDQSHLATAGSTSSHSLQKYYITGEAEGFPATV
Method: as §1

ACAT in MCF-7 cells = biological target: T5, ACAT in MCF-7 cells (Homo sapiens, UniProt P35610); assay: ACAT activity in intact MCF-7 cells; format: cell-based; details: MCF-7, 24 h, [14C]cholesterol; for IC50: read-out: IC50, inhibition of ACAT activity in intact cells
T5 construct: endogenous in cells; host or cells: MCF-7, MDA-MB-231, U-87
T5 sequence (P35610 1-550): T3 sequence (P35610 1-550)
Method: as §2, §3

ACAT in MB-231 cells = biological target: T6, ACAT in MB-231 cells (Homo sapiens, UniProt P35610); assay: ACAT activity in intact MB-231 cells; format: cell-based; details: MB-231, 24 h, [14C]cholesterol; for IC50: read-out: IC50, inhibition of ACAT activity in intact cells
T6 construct: endogenous in cells; host or cells: MCF-7, MDA-MB-231, U-87
T6 sequence (P35610 1-550): T3 sequence (P35610 1-550)
Method: as §2, §3

[3] = tested on: MCF-7, MB-231, U-87 and 3T3-EA cells; assay: Clonogenic assay (colony formation); format: cell-based; details: Homo sapiens, MCF7, four tested cell lines, vs solvent vehicle, read-out: inhibition of cancer cell colony formation
Method: Following trypsinization of the cells, they were plated in tissue culture plates (60 mm) at a density of 500–1000 per plate. After adherence for 24 h, the drugs were added at the chosen final concentrations from freshly prepared stock solutions. The plates were washed twice with serum-free medium after 24 to 72 h incubation. Fresh medium was added and the plates were incubated at 37 °C until the colonies became visible. After incubation, the plates were washed with PBS and stained using Coomassie brilliant blue. The stained colonies were counted and are reported as the percentage of control cells (ethanol treated (0.01% (v/v)).

[4] = tested on: MCF-7, MB-231, U-87 and 3T3-EA cells; assay: Cell invasion assay (Matrigel-coated filters); format: cell-based
Method: Cells were added to six-well plates (40,000 cells/well) containing Dulbecco's Modified Eagle Medium (DMEM) and 10% FCS. Following incubation for 24 h, the cells were treated for a further 24 h in the presence of the test compounds, or else vehicle in DMEM and 2% Fetal Calf Serum (FCS). The cells were harvested and counted. Cells (20,000) were placed in serum-free DMEM on the surface of Nunc filters (8 mm diameter, […]; Nalgen Nunc International, Rochester, NY, USA). The filters were coated with growth factor-reduced Matrigel ([…] Matrigel; BD Biosciences, San Jose, CA, USA) in the presence of the test compounds or else vehicle. The base of the filter was filled with 10% FCS/DMEM. Following incubation for 48 h at 37 °C, cells which had invaded the Matrigel and attached themselves to the base of the filter were fixed, stained with Giemsa stain and counted microscopically.

Chain of ERβ (Q92731 whole entry, species assumed): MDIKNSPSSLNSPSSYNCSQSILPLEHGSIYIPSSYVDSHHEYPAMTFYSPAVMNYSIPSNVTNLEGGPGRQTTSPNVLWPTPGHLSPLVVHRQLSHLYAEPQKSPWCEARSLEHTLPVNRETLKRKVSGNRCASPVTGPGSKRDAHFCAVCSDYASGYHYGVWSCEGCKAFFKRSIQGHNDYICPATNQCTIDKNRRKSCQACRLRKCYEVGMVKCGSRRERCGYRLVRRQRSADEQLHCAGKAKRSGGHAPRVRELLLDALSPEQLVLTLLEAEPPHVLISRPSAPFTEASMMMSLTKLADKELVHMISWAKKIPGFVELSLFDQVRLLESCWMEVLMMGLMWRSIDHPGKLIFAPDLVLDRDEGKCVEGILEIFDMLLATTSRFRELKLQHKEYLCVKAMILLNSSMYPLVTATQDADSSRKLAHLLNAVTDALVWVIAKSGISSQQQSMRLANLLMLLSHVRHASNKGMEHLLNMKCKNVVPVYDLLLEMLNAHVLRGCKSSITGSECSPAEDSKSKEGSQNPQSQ

Row | Compound | IC50, competition with radiolabelled 17β-estradiol binding to ERβ (ERβ) | IC50 [1] [µM] | IC50, ChEH inhibition [2] | IC50 (ACAT in U-87 cells) [µM] | IC50, competition with radiolabelled 17β-estradiol binding to ERα (ERα) | IC50 (ACAT in MCF-7 cells) [µM] | IC50 (ACAT in MB-231 cells) [µM] | IC50, ChEH inhibition ([2]; listed as BrA) | inhibition at 25 µM [3] [%] | inhibition of cell invasiveness ([4]; 25 μM, 24 h pre-treatment, 48 h invasion, four cell lines) | effect of added cholesteryl oleate on inhibition of cell invasiveness ([4]; cholesteryl oleate 4 µg/mL, MB-231 and U87 cells) | IC50, inhibition of ACAT activity in intact cells [1] | IC50, inhibition of ACAT activity in intact cells (ACAT in U-87 cells) | IC50, inhibition of ACAT activity in intact cells (ACAT in MCF-7 cells) | IC50, inhibition of ACAT activity in intact cells (ACAT in MB-231 cells)
1 | C=C(C)[C@@H]1CC[C@]2(C(=O)O)CC[C@]3(C)[C@H](CC[C@@H]4[C@@]5(C)CC[C@H](O)C(C)(C)[C@@H]5CC[C@]43C)[C@@H]12 [betulinic acid] | n.m. | 60.2 ± 8 | n.m. | 61.4 ± 9.4 | n.m. | 53.7 ± 4.2 | 58.3 ± 8.1 |  |  |  |  |  |  |  | 
2 | CCCCCCCCCC[Si](C)(C)CCC(=O)NC(Cc1ccc(C)cc1)c1ccccc1 (centres unmarked) [sah 58-035, 3-[decyldimethylsilyl]-N-[2-(4-methylphenyl)-1-phenylethyl]-propanamide] |  | 7.4 ± 1.8 |  | 9.2 ± 2.2 |  | 5.1 ± 0.5 | 9.1 ± 1.4 |  |  |  |  |  |  |  | 
3 | CC1(C)[C@@H](O)CC[C@]2(C)C3=C(CC[C@@H]12)[C@@]1(C)CC[C@@]2(C)CC[C@@](C)(C(=O)O)C[C@H]2[C@]1(C)CC3 [bryonolic acid, D-C friedoolean-8-en-3β-ol-29 oic acid] | n.m. | 19.4 ± 7.6 | n.m. | 17.5 ± 4.8 | n.m. | 22.5 ± 3.7 | 29.5 ± 5.5 | does not inhibit ChEH | > 50 | observable in the four cell lines | blocked the inhibition of cell invasiveness triggered by BrA |  |  |  | 
4 | C[C@]12CC[C@@H]3c4ccc(O)cc4CC[C@H]3[C@@H]1CC[C@@H]2O [E2, 17β-estradiol] |  |  | n.m. |  |  |  |  |  |  |  |  |  |  |  | 
5 | C[C@H]1[C@H](C)CC[C@]2(C(=O)O)CC[C@]3(C)C(=CC[C@@H]4[C@@]5(C)CC[C@H](O)C(C)(C)[C@@H]5CC[C@]43C)[C@H]12 [ursolic acid] | n.m. |  | n.m. |  |  |  |  |  |  |  |  | n.m | n.m. | n.m. | n.m.
